Laboratory results reported in patent US20120021905A1, “Pesticidal Mixtures” (priority 2009, published 2012).
Read-outs that look alike come from different tables or passages of the source.

Tests used:
Details in all cases: 7 days after inoculation, 405 nm
Pyricularia oryzae = type: cell-based
Septoria tritici = tested on: Septoria tritici
Botrytis cinerea = assay: Microtest: activity against the grey mold Botrytis cinerea in the microtiterplate test (Botrci); type: cell-based

## O=[N+]([O-])NC1=NCCN1Cc1ccc(Cl)nc1 [Imidacloprid, imidacloprid]
Pyricularia oryzae; 63 ppm
  Observed efficacy: 0
Septoria tritici; 4 ppm
  Observed efficacy: 2

## N#Cc1nn(-c2c(Cl)cc(C(F)(F)F)cc2Cl)c(N)c1[S+]([O-])C(F)(F)F (stereo not drawn) [fipronil]
Botrytis cinerea; 0.016 ppm
  Observed efficacy: 0
Pyricularia oryzae; 0.063 ppm
  Observed efficacy: 0

## CN/C(=N\[N+](=O)[O-])NCc1cnc(Cl)s1 [clothianidin]
Botrytis cinerea; 16 ppm
  Observed efficacy: 0

## COCC(=O)N(c1c(C)cccc1C)C(C)C(=O)OC (stereo not drawn) [metalaxyl, Metalaxyl]
Pyricularia oryzae; 4 ppm
  Observed efficacy: 0

## C/C(=N\C#N)N(C)Cc1ccc(Cl)nc1 [acetamipyrid]
Pyricularia oryzae; 63 ppm
  Observed efficacy: 0

## CN1COCN(Cc2cnc(Cl)s2)/C1=N\[N+](=O)[O-] [thiamethoxam]
Botrytis cinerea; 16 ppm
  Observed efficacy: 0
Pyricularia oryzae; 1 ppm
  Observed efficacy: 41
Septoria tritici; 1 ppm
  Observed efficacy: 62

## COC(=O)N(OC)c1ccccc1COc1ccn(-c2ccc(Cl)cc2)n1 [Pyraclostrobin]
Pyricularia oryzae; 0.001 ppm
  Observed efficacy: 21
Septoria tritici; 0.004 ppm
  Observed efficacy: 49
